Experimental data taken from ChEMBL document CHEMBL1201862, “PubChem BioAssay data set” (2004).
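Values below derive from 48-hour exposures of cells grown in 96-well plates, with endpoints linearly interpolated between the two concentrations bracketing the appropriate inhibition level. GI50 = concentration required for 50% inhibition of growth.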 Active and inactive are the calls of the source. Cut-off read from the data, not from the text of the source: active = GI50 up to about 1.1 µM and inactive = higher.

Legend:
Assay in all cases: NCI-60 cell line screen, 48 h
[1] = system: HOP-92
[2] = system: SNB-75
[3] = system: OVCAR-3
[4] = system: OVCAR-8
[5] = system: COLO 205
[6] = system: SF-295
[7] = system: UO-31
[8] = system: CCRF-CEM
[9] = system: TK-10
[10] = system: UACC-62
[11] = system: SK-OV-3
[12] = system: SN12C
[13] = system: HT-29
[14] = system: SW-620
[15] = system: MOLT-4
[16] = system: ACHN
[17] = system: SK-MEL-28

Measured: GI50

O=S(=O)(O)C(F)(F)C(F)(F)C(F)(F)C(F)(F)F
inactive: [1] 9.51 µM | [2] > 100 µM | [3] > 100 µM | [4] > 100 µM | [5] > 100 µM | [6] > 100 µM | [7] > 100 µM | [8] > 100 µM | [9] > 100 µM | [10] > 100 µM | [11] > 100 µM | [12] > 100 µM | [13] > 100 µM | [14] > 100 µM | [15] > 100 µM | [16] > 100 µM

COC(=O)CC1NC(=O)C1C(C)(OC)OC (centres undefined)
inactive: [17] > 100 µM | [2] 30.3 µM | [3] > 100 µM | [4] > 100 µM | [5] > 100 µM | [6] > 100 µM | [7] > 100 µM | [8] > 100 µM | [9] > 100 µM | [10] > 100 µM | [12] > 100 µM | [13] > 100 µM | [14] > 100 µM | [15] > 100 µM | [16] > 100 µM

CCOC(OC1=CCCC1)C(C)[Se]c1ccccc1 (centres undefined)
inactive: [17] 42.1 µM | [1] 51.2 µM | [2] 39.3 µM | [3] 34.5 µM | [4] 39.5 µM | [5] 18.7 µM | [6] 31.5 µM | [7] 39.3 µM | [8] 15.2 µM | [9] > 100 µM | [10] 23.9 µM | [11] > 100 µM | [12] 30.7 µM | [13] 23.3 µM | [15] 22.3 µM | [16] 61.8 µM

COc1ccc2c3c([nH]c2c1[N+](=O)[O-])C(C)N(Cc1ccc([N+](=O)[O-])cc1)CC3 (centres undefined)
inactive: [17] 11.9 µM | [3] 14 µM | [4] 16.2 µM | [5] 14 µM | [6] 16.3 µM | [7] 13.2 µM | [8] 6.76 µM | [9] 29.6 µM | [10] 15.8 µM | [12] 18.5 µM | [13] 8.75 µM | [14] 15.1 µM | [15] 2.99 µM | [16] 18.1 µM

COC1OC2COC(c3ccccc3)OC2C(O)C1Br (centres undefined)
inactive: [17] > 100 µM | [1] > 100 µM | [3] > 100 µM | [4] > 100 µM | [5] > 100 µM | [6] > 100 µM | [8] > 100 µM | [9] > 100 µM | [10] > 100 µM | [12] > 100 µM | [13] > 100 µM | [14] > 100 µM | [15] > 100 µM | [16] > 100 µM

CC1=C(c2ccccc2)CON(c2ccccc2)C1
inactive: [17] 31 µM | [3] 85.7 µM | [4] 33.5 µM | [5] 33.1 µM | [6] 30.6 µM | [7] 29.7 µM | [8] 25.1 µM | [10] 38.5 µM | [11] > 100 µM | [12] 53.6 µM | [13] 36.9 µM | [14] 39.4 µM | [15] 29.6 µM | [16] 30.2 µM

NCCCNC(=O)c1csc(NC(=O)c2csc(NC(=O)CCCN)n2)n1
inactive: [17] > 100 µM | [1] > 100 µM | [2] > 100 µM | [3] > 100 µM | [4] > 100 µM | [5] > 100 µM | [6] > 100 µM | [7] > 100 µM | [8] > 100 µM | [9] > 100 µM | [10] > 100 µM | [11] > 100 µM | [12] > 100 µM | [13] > 100 µM | [15] > 100 µM | [16] > 100 µM

Cc1cc2c(=O)cc(-c3ccc(Cl)cc3Cl)oc2c(C(=O)O)c1C
inactive: [17] > 100 µM | [2] > 100 µM | [3] > 100 µM | [4] > 100 µM | [5] > 100 µM | [6] > 100 µM | [7] > 100 µM | [8] > 100 µM | [9] > 100 µM | [10] > 100 µM | [11] > 100 µM | [12] > 100 µM | [13] > 100 µM | [14] > 100 µM | [15] > 100 µM | [16] > 100 µM

O=C1CC2Sc3ccccc3N=C2N1c1ccc(Cl)cc1Cl (centres undefined)
inactive: [17] 93.3 µM | [1] 30.3 µM | [2] 99.1 µM | [3] > 100 µM | [4] 59.3 µM | [5] > 100 µM | [6] 79.8 µM | [7] 29.9 µM | [8] 17.1 µM | [9] > 100 µM | [10] 48.3 µM | [12] 39.9 µM | [13] 92 µM | [14] 46.2 µM | [15] 23.3 µM | [16] 54.3 µM

CC(=O)Nc1ccc(C(=O)N2N=C(C)/C(=C/c3cccc([N+](=O)[O-])c3)C2=O)cc1
inactive: [17] > 100 µM | [2] > 100 µM | [3] > 100 µM | [4] > 100 µM | [5] > 100 µM | [6] > 100 µM | [7] > 100 µM | [8] > 100 µM | [9] > 100 µM | [12] > 100 µM | [13] > 100 µM | [14] > 100 µM | [15] > 100 µM | [16] > 100 µM

CN1N=C2c3ccccc3CC[C@H]2C1c1cccc(O)c1 (some centres undefined)
inactive: [17] > 100 µM | [1] > 100 µM | [3] > 100 µM | [4] > 100 µM | [5] > 100 µM | [6] > 100 µM | [7] 32.4 µM | [8] > 100 µM | [9] > 100 µM | [10] > 100 µM | [11] > 100 µM | [12] > 100 µM | [13] 55.1 µM | [14] > 100 µM | [15] > 100 µM | [16] > 100 µM

COc1cc2nc(Sc3c([N+](=O)[O-])ncn3C)[nH]c2cc1OC
inactive: [17] 20.5 µM | [1] 16.5 µM | [2] 28.4 µM | [3] 46.8 µM | [4] 15.1 µM | [5] 13.6 µM | [6] > 100 µM | [7] 46 µM | [9] 26.9 µM | [10] 24.3 µM | [11] 79.4 µM | [12] 16.3 µM | [13] 41.7 µM | [14] 26 µM | [15] 12.5 µM | [16] 54.3 µM

COC1CC2C3/C(=N/Nc4ccc([N+](=O)[O-])cc4[N+](=O)[O-])CCC2(C)C3C1 (centres undefined)
inactive: [17] > 100 µM | [1] > 10 µM | [2] > 10 µM | [3] > 10 µM | [4] > 100 µM | [5] > 10 µM | [6] > 10 µM | [7] > 10 µM | [9] > 100 µM | [10] > 10 µM | [11] > 10 µM | [12] > 10 µM | [13] > 10 µM | [14] > 10 µM | [15] 42.3 µM | [16] > 10 µM
